Where two headings read alike, the source gives them in different places.
Biological target: T1, IKK2 (Homo sapiens, UniProt O14920)
T1 construct: made in house; host or cells: insect cells (baculovirus, pFastBac; SF9)
T1 sequence (O14920 1-756): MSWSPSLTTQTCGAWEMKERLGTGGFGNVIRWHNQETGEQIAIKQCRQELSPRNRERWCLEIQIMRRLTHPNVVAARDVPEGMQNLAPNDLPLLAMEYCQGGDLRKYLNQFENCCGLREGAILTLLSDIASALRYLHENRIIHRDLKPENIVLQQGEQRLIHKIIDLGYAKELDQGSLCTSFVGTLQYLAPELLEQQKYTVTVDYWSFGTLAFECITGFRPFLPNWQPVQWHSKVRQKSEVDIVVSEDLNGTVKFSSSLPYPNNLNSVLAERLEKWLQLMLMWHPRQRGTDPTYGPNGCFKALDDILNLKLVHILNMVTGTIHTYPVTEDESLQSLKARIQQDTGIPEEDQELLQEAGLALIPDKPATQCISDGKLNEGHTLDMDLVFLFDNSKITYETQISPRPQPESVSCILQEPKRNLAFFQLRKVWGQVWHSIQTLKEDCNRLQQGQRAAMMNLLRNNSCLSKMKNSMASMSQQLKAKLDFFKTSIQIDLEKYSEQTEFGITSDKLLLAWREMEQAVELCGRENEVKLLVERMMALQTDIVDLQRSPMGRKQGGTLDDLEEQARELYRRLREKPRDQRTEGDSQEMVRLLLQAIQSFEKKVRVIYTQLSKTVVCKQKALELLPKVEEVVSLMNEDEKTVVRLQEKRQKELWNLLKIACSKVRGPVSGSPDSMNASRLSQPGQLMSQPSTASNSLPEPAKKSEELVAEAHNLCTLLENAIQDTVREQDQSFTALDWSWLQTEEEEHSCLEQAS
Assay: IKKβ Resin Enzyme Assay (IKK2 resin)
Assay type: biochemical
Method in brief: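 Radiometric test: [γ-33P]ATP incorporation into a biotinylated IκBα peptide, 30 min at 25° C, pH 7.6 Hepes with MgCl2/MnCl2 and 1 μM cold ATP. Reaction is quenched with Dowex resin and the supernatant is counted. Kinase is FLAG-purified homodimeric recombinant human IKK2 from insect cells.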

[1] = Table 6, read-out: IKK2 Resin IC 50
[2] = Table 15, read-out: IKK2 Resin IC50
[3] = Table 3, read-out: IKK Resin IC50
[4] = Table 4, read-out: IKK2 Resin IC50
[5] = Table 7, read-out: IKK2 Resin IC50

NC(=O)c1nn(-c2ccc(O)cc2)c2c1CCc1ccc(NC(=O)c3ccccc3Cl)cc1-2 [Example 261, 8-[(2-chlorobenzoyl)amino]-1-(4-hydroxyphenyl)-4,5-dihydro-1H-benzo[g]indazole-3-carboxamide]
IC50 (Table 8, read-out: IKK2 Resin IC50): ≤ 1000 nM

NC(=O)c1nn(-c2ccc(F)cc2)c2c1CCc1ccc(NC(=O)c3cccnc3Cl)cc1-2 [Example 225, 8-{[(2-chloropyridin-3-yl)carbonyl]amino}-1-(4-fluorophenyl)-4,5-dihydro-1H-benzo[g]indazole-3-carboxamide]
IC50 [1]: ≤ 1000 nM

NC(=O)c1nn(-c2cccc(N)c2)c2c1CCc1ccc(NC(=O)c3ccccc3Cl)cc1-2 [Example 375, 1-(3-aminophenyl)-8-[(2-chlorobenzoyl)amino]-4,5-dihydro-1H-benzo[g]indazole-3-carboxamide]
IC50 [2]: ≤ 1000 nM

NC(=O)c1nn(-c2ccc([N+](=O)[O-])cc2)c2c1CCc1ccc(NC(=O)c3ccccc3Cl)cc1-2 [Example 324, 8-[(2-chlorobenzoyl)amino]-1-(4-nitrophenyl)-4,5-dihydro-1H-benzo[g]indazole-3-carboxamide]
IC50 (Table 14, read-out: IKK2 Resin IC50): ≤ 1000 nM

NC(=O)c1nn(-c2ccc(F)cc2)c2c1CCc1ccc(NC(=O)c3cc(Cl)cnc3Cl)cc1-2 [Example 223, 8-{[(2,5-dichloropyridin-3-yl)carbonyl]amino}-1-(4-fluorophenyl)-4,5-dihydro-1H-benzo[g]indazole-3-carboxamide]
IC50 [1]: ≤ 1000 nM

CC1(C)Cc2c(C(N)=O)nn(-c3ccc4c(c3)OCO4)c2-c2cc(NC(=O)c3ccncc3Cl)ccc21 [Example 435, 1-(1,3-benzodioxol-5-yl)-8-[(3-chloroisonicotinoyl)amino]-5,5-dimethyl-4,5-dihydro-1H-benzo[g]indazole-3-carboxamide]
IC50 (Table 22, read-out: IKK2 Resin IC50): ≤ 1000 nM

CC(C)CNCC(=O)Nc1ccc2c(c1)-c1c(c(C(N)=O)nn1-c1ccc3c(c1)OCO3)CC2 [Example 451, 1-(1,3-benzodioxol-5-yl)-8-[(N-isobutylglycyl)amino]-4,5-dihydro-1H-benzo[g]indazole-3-carboxamide]
IC50 (Table 23, read-out: IKK2 Resin IC50): ≤ 1000 nM

CS(=O)(=O)c1ccc(-n2nc(C(N)=O)c3c2-c2cc(NC(=O)c4cc(F)ccc4[N+](=O)[O-])ccc2CC3)cc1 [Example 151, 8-[(5-fluoro-2-nitrobenzoyl)amino]-1-[4-(methylsulfonyl)phenyl]-4,5-dihydro-1H-benzo[g]indazole-3-carboxamide]
IC50 [3]: ≤ 1000 nM

CSc1ccc(Cl)c(C(=O)Nc2ccc3c(c2)-c2c(c(C(N)=O)nn2-c2ccc(F)cc2)CC3)c1 [Example 235, 8-{[2-chloro-5-(methylthio)benzoyl]amino}-1-(4-fluorophenyl)-4,5-dihydro-1H-benzo[g]indazole-3-carboxamide]
IC50 [1]: ≤ 1000 nM

CSc1ccc(Cl)c(C(=O)Nc2ccc3c(c2)-c2c(c(C(N)=O)nn2-c2ccc4c(c2)OCO4)CC3)c1 [Example 190, 1-(1,3-benzodioxol-5-yl)-8-{2-chloro-5-[2-(methylthio)benzoyl]amino}-4,5-dihydro-1H-benzo[g]indazole-3-carboxamide]
IC50 [4]: ≤ 1000 nM

CS(=O)(=O)c1ccc(-n2nc(C(N)=O)c3c2-c2cc(NC(=O)c4cccc(Cl)c4N)ccc2CC3)cc1 [Example 118, 8-[(2-amino-3-chlorobenzoyl)amino]-1-[4-(methylsulfonyl)phenyl]-4,5-dihydro-1H-benzo[g]indazole-3-carboxamide]
IC50 (Table 2, read-out: IKK Resin IC50): ≤ 1000 nM

NC(=O)c1nn(-c2ccc(C#CCO)cc2)c2c1CCc1ccc(NC(=O)c3cccnc3Cl)cc1-2 [Example 386, 8-{[(2-chloropyridin-3-yl)carbonyl]amino}-1-[4-(3-hydroxyprop-1-ynyl)phenyl]-4,5-dihydro-1H-benzo[g]indazole-3-carboxamide]
IC50 (Table 17, read-out: IKK2 Resin IC50): ≤ 1000 nM

Cc1ccc(C(=O)Nc2ccc3c(c2)-c2c(c(C(N)=O)nn2-c2ccc(F)cc2)CC3)c(Cl)n1 [Example 227, 8-{[(2-chloro-6-methylpyridin-3-yl)carbonyl]amino}-1-(4-fluorophenyl)-4,5-dihydro-1H-benzo[g]indazole-3-carboxamide]
IC50 [1]: ≤ 1000 nM

CS(=O)(=O)c1ccc(-n2nc(C(N)=O)c3c2-c2cc(NC(=O)c4ccc(C#N)cc4)ccc2CC3)cc1 [Example 144, 8-[(4-cyanobenzoyl)amino]-1-[4-(methylsulfonyl)phenyl]-4,5-dihydro-1H-benzo[g]indazole-3-carboxaniide]
IC50 [3]: ≤ 1000 nM

NC(=O)c1nn(-c2ccc(F)cc2)c2c1CCc1ccc(NC(=O)c3cc(N4CCNCC4)ncc3Cl)cc1-2 [Example 253, 8-[(5-chloro-2-piperazin-1-ylisonicotinoyl)amino]-1-(4-fluorophenyl)-4,5-dihydro-1H-benzo[g]indazole-3-carboxamide]
IC50 [5]: ≤ 1000 nM

COc1ccc(C(=O)Nc2ccc3c(c2)-c2c(c(C(N)=O)nn2-c2ccc4c(c2)OCO4)CC3)c(Cl)c1OC [Example 175, 1-(1,3-benzodioxol-5-yl)-8-[(2-chloro-3,4-dimethoxybenzoyl)amino]-4,5-dihydro-1H-benzo[g]indazole-3-carboxamide]
IC50 [4]: ≤ 1000 nM

NC(=O)c1nn(-c2ccc(F)cc2)c2c1CCc1ccc(NC(=O)c3cccc(N)c3Cl)cc1-2 [Example 229, 8-[(3-amino-2-chlorobenzoyl)amino]-1-(4-fluorophenyl)-4,5-dihydro-1H-benzo[g]indazole-3-carboxamide]
IC50 [1]: ≤ 1000 nM

CN1CCN(c2ccc(Cl)c(C(=O)Nc3ccc4c(c3)-c3c(c(C(N)=O)nn3-c3ccc(F)cc3)CC4)n2)CC1 [Example 256, 8-({[3-chloro-6-(4-methylpiperazin-1-yl)pyridin-2-yl]carbonyl}amino)-1-(4-fluorophenyl)-4,5-dihydro-1H-benzo[g]indazole-3-carboxamide]
IC50 [5]: ≤ 1000 nM

C=CCNS(=O)(=O)c1ccc(-n2nc(C(N)=O)c3c2-c2cc(NC(=O)c4ccccc4Cl)ccc2CC3)cc1 [Example 421, 1-{4-[(allylamino)sulfonyl]phenyl}-8-[(2-chlorobenzoyl)amino]-4,5-dihydro-1H-benzo[g]indazole-3-carboxamide]
IC50 (read-out: IKK-2 resin IC50): ≤ 1000 nM

CSc1ccc(-n2nc(C(N)=O)c3c2-c2cc(NC(=O)c4cc5c(cc4Cl)OCO5)ccc2CC3)cc1 [Example 413, 8-{[(6-chloro-1,3-benzodioxol-5-yl)carbonyl]amino}-1-[4-(methylthio)phenyl]-4,5-dihydro-1H-benzo[g]indazole-3-carboxamide]
IC50 (Table 19, read-out: IKK2 Resin IC50): ≤ 1000 nM

COCC(=O)Nc1ccc(-n2nc(C(N)=O)c3c2-c2cc(NC(=O)c4ccccc4Cl)ccc2CC3)cc1 [Example 374, 8-[(2-chlorobenzoyl)amino]-1-{4-[(methoxyacetyl)amino]phenyl}-4,5-dihydro-1H-benzo[g]indazole-3-carboxamide]
IC50 [2]: ≤ 1000 nM

NC(=O)c1nn(-c2cccc(O)c2)c2c1CCc1ccc(NC(=O)c3cc4c(cc3Cl)OCO4)cc1-2 [Example 277, 8-{[(6-chloro-1,3-benzodioxol-5-yl)carbonyl]amino}-1-(3-hydroxyphenyl)-4,5-dihydro-1H-benzo[g]indazole-3-carboxamide]
IC50 (Table 10, read-out: IKK2 Resin IC50): ≤ 1000 nM

NC(=O)c1nn(-c2ccc(F)cc2)c2c1CCc1ccc(NC(=O)c3cc(N)ccc3Cl)cc1-2 [Example 236, 8-[(5-amino-2-chlorobenzoyl)amino]-1-(4-fluorophenyl)-4,5-dibydro-1H-benzo[g]indazole-3-carboxamide]
IC50 [1]: ≤ 1000 nM
